Experimental data reported in patent publication US12285434B2, “Therapeutic, preventive, or improvement agent for inflammatory disease and allergic disease” (The University of Tokyo, priority 2018, dated 2025).

Tests used:
mouse aortae = experiment: Measurement of vascular contraction of aorta (aortic ring specimens)
Description: After excision of the thoracic aortae from untreated mice and removal of fat and connective tissue, the aortae were cut into rings to prepare aortic ring specimens. The ring specimens were immersed in a liquid tank filled with a normal nutrient solution (physiological saline solution containing 136.9 mM NaCl, 5.4 mM KCl, 5.5 mM glucose, 23.8 mM NaHCO3, 1.5 mM CaCl2, 1.0 mM MgCl2 and 0.01 mM EDTA), and two stainless hooks were penetrated through the lumens of the ring specimens. One end of each of the stainless hooks was fixed, and the other end thereof was connected to a force-displacement transducer (T7-30-240, manufactured by Orientec Co., Ltd.) connected to a strain amplifier (3134 strain AMPL, manufactured by Yokogawa Test & Measurement Corporation). Then, the following operation (a), (b) or (c) was performed.
(a) Norepinephrine (manufactured by Sigma) was cumulatively added into the liquid tank containing the ring specimens after stabilization of each contraction (every about 30 minutes) so as to attain 0.001 μM, 0.01 μM, 0.1 μM and 1 μM, and this group was designated as a “norepinephrine-administered group” (n=4) (FIG. 3A). 5,6-DiHETE was cumulatively added into the liquid tank containing the ring specimen after stabilization of each contraction (every about 30 minutes) so as to attain 0.001 μM, 0.01 μM, 0.1 μM and 1 μM, and this group was designated as a “5,6-DiHETE-administered group” (n=4) (FIG. 3A).
(b) Norepinephrine was added into the liquid tank containing the ring specimens so as to attain 0.3 μM, and precontraction was induced by administration of norepinephrine (FIG. 3B). Then, after the contraction by the administration of norepinephrine was stabilized, acetylcholine (manufactured by Sigma) was cumulatively added after stabilization of each relaxation reaction (every about 15 minutes) so as to attain 0.03 μM, 0.1 μM, 0.3 μM and 1 μM, and this group was designated as an “acetylcholine-administered group” (FIG. 3B). After the contraction by the administration of norepinephrine was stabilized, 5,6-DiHETE was cumulatively added every about 15 minutes so as to attain 0.001 μM, 0.01 μM, 0.1 μM and 1 μM, and this group was designated as a “5,6-DiHETE-administered group” (n=4) (FIG. 3B).
(c) In order to verify the effect of 5,6-DiHETE on the acetylcholine administration, norepinephrine was added into the liquid tank containing the ring specimens so as to attain 1 μM. After the contraction by the administration of norepinephrine was stabilized, 5,6-DiHETE or a vehicle (solvent alone) was added so as to attain 1 μM. […]
In the above operations (a) to (c), tension (contractile force) generated in the aortic ring specimens was measured isometrically over time using the above force-displacement transducer under a resting tension of 3 mN, and recorded.

[1] = test system: calcium ion concentration in HUVECs; experiment: Histamine-induced increase of calcium ion concentration (fura-2); assay type: cell-based, human; conditions: histamine 10 μM
Description: These cells (passages 4 to 9) were used for experiments after 4-hour starvation in EBM-2 (manufactured by Lonza K.K.) containing 2% FBS.
HUVECs were incubated with a calcium fluorescence indicator (3 μg fura-2/AM containing 0.11% Cremophor EL) for 30 minutes and washed with an HEPES buffer three times. […] Then, 5 minutes after the addition of each reagent, histamine was added so as to attain 10 μM. In addition, a group to which histamine was added so as to attain 10 μM without pretreatment was also prepared. A cover slip was placed in a specialized airtight chamber mounted onto the stage of a microscope maintained at 37° C. The HUVECs were excited at 340 nm and 380 nm and the emitted fluorescence signal was measured every 3 seconds at 510 nm for 60 seconds. The fluorescence ratio (R:F340/F380) was determined using a fluorescence imaging system (AQUACOSMOS, manufactured by Hamamatsu Photonics K.K.). After the experiment, 1 μM ionomycin was added and the fluorescence changes were measured in the presence of 0 or 1.5 mM calcium ions. The calcium ion concentration was indicated as A fluorescence ratio. AUC was calculated 1 minute after each stimulus to evaluate the A fluorescence ratio. It is known that the increase of calcium ion concentration in endothelial cells promotes NO production by eNOS phosphorylation and […] smooth muscle cells (Garcia-Cardena, G. et al., Nature, 392: 821-824(1998); and Luo, Z. et al., The Journal of clinical investigation, 106: 493-499(2000)).

CC/C=C\C/C=C\C/C=C\C/C=C\C[C@@H](O)[C@@H](O)CCCC(=O)O (racemic) [5,6-DiHETE, (±) 5,6-dihydroxy-8Z,11Z,14Z,17Z-eicosatetraenoic acid]
acetylcholine-induced aortic relaxation vs vehicle-administered group (mouse aortae; 1 μM pretreatment, precontraction 1 μM norepinephrine, acetylcholine 0.03-1 μM): significantly attenuated
contraction of aorta (mouse aortae; cumulative addition 0.001, 0.01, 0.1 and 1 μM): no contraction was caused
effect on aorta precontracted by norepinephrine (mouse aortae; precontraction 0.3 μM norepinephrine, cumulative 0.001, 0.01, 0.1 and 1 μM): did not affect the precontraction by norepinephrine
calcium ion concentration, AUC at 1 minute after stimulation ([1]; pretreatment 0.03 μM): 7.8±2.3
calcium ion concentration, AUC at 1 minute after stimulation ([1]; pretreatment 0.1 μM): 5.9±1.5
calcium ion concentration, AUC at 1 minute after stimulation ([1]; pretreatment 0.3 μM): 1.8±1.1
